Key:
[1] = tested on: cat flea (Ctenocepalides felis); assay: Cat flea contact treatment on sprayed carpet plugs; format: in vivo; conditions: 72 hours
Method: The treatment of cat flea (Ctenocepalides felis) with various formulations containing alpha hexyl cinnamaldehyde is tested as follows. In a double blind experiment, variable concentrations of the formulae were tested for activity against cat flea (Ctenocepalides felis). The initial experiments tested alpha hexyl cinnamaldehyde at concentrations of 5%, 10% and 20% in 6% Tween 80. As controls, a formula blank containing 6% Tween 80 and negative control with no formulae were tested. Fleas were put in direct contact with the formulae and mortality was assessed both visually and by probing at 72 hours after contact.
Approximately […] of each formula concentration was sprayed on 0.279 square meter carpet section (DuPont) at 20 PSI. After allowing to air dry (20 minutes), four plugs each 14 cm in diameter were cut from each treated carpet section. One plug was used for each replicate for four total replications. For each treatment and replicate, 25 fleas were introduced on each plug. Plugs were then rolled and put in an escape proof, ventilated 2 liter container. After 72 hours mortality was assessed.

[2] = tested on: thrips insects (Frankliniella occidentalis); assay: Residual activity on treated filter paper against thrips; format: in vivo; conditions: rehydrated 24 and 72 hours after spraying, thrips exposed one hour
Method: In the first experiment, two ml of two concentrations of CNMA (0.3 and 1%) were sprayed on filter paper (Whatman). As a negative control, two ml of water was also sprayed on filter paper. Twenty-four hours later, two ml of water were sprayed on treatment and control filter paper, which were then dried for 30 min. Approximately 30 thrips insects (Frankliniella occidentalis) were introduced onto the treated filter papers and the number of F. occidentalis were observed after one hour. Mean mortality was calculated for each treatment. After 72 hours, the treated filter papers were flipped over and only the negative control filter paper and the filter paper treated with 1% CNMA were sprayed with 2 ml of water and allowed to dry for 30 minutes. Approximately 30 thrips were introduced onto the two treated filter papers and after one hour the number of dead F. occidentalis were observed and the mean mortality calculated for each treatment. A similar assay was conducted using AHCNMA. Mean mortality was higher for rehydrated filter papers compared to non-rehydrated filter papers over time.

[3] = tested on: human subjects; conditions: 12% in petrolatum; 48 hour closed-patch test on human subjects; cited from earlier work
[4] = tested on: human subjects; conditions: 20% in diethylphthalate; 100 human subjects; cited from earlier work
[5] = tested on: rats; conditions: cited from earlier work
[6] = cited from earlier work
[7] = at 25° C.; cited from earlier work
[8] = tested on: two-spotted spider mite, Tetranychus urticae; assay: Spider mite treated petri dish contact bioassay; format: in vivo; conditions: positive control, 10 ppm; 24 hours contact
Method: Activity of cinnamic aldehyde and/or coniferyl aldehyde against two-spotted spider mite, Tetranychus urticae is determined as follows. In a double blind experiment, intersurfaces of petri dishes (60 mm diameter) were treated with 100 μl of a test formulation and allowed to air dry and used within the hour. Twenty adult spider mites were put in each dish and the percent of mortality of the spider mites after 24 hours in contact with the treated dishes Was determined.

[9] = tested on: Adult human lice (Pediculus humanus); format: in vivo; conditions: 2% in water, lice submerged 1, 4 or 10 minutes
Method: Adult human lice (Pediculus humanus) were treated with α-butyl cinnamic aldehyde to determine its pediculicidal activity. […] For each of four replicates, 25 mixed sex lice were placed in a 9 dram plastic vial and covered with a screened plunger to keep the lice from floating to the surface. The vial containing the lice was dipped into a 100 ml beaker containing 2% α-butyl cinnamic aldehyde, which was dissolved in water or distilled water as a negative control. Lice were submerged in the 2% α-butyl cinnamic aldehyde for 1, 4 or 10 minutes. After this time, the test container was removed from the treatment, submerged in a 1000 mL beaker containing distilled water (32° C.) from a wash bottle. Subsequently, lice were allowed to recover in an incubator maintained at 31.7° C. in 60% RH (relative humidity) for 1 hour. Following the recovery period, lice were examined for their ability to move toward heat. For this observation, the lice were placed on a patch which was placed on a second patch that was on top of a slide warmer maintained at 37° C. Lice not dead or morbid (unable to move towards heat 1 hour after treatment; sickly, but not necessarily dying; may recover by 24 hours), will move to the lower patch. Lice again were examined for their ability to move towards 24 hours later. […]

What does the source list for CCCCCCC(C=O)=Cc1ccccc1 [HCA, 2-(phenylmethylene) octanal]?
Percent Mortality ([1]; 5% wt/vol in 6% Tween 80): 84%; Percent Mortality ([1]; 10% wt/vol in 6% Tween 80): 92%; Percent Mortality ([1]; 20% wt/vol in 6% Tween 80): 86%; flea mortality ([1]; all treatments (5%, 10% and 20% in 6% Tween 80)): greater than 80%; residual activity in words [2]: residual activity; irritation [3]: no irritation; reactions in repeated insult patch test [4]: no positive reactions; oral LD50 [5]: 3100 mg/kg; dermal LD50 [6]: greater than 3 g/kg; vapor pressure [7]: 70×10^−5 mm Hg

With CCN(CC)c1cccc(C)c1 [N,N-diethyl-m-toluamine, reference compound] as the compound, how does the vapor pressure [7] read?
Its vapor pressure is 167×10^−5 mm Hg.

For CNC(=O)Oc1cccc2ccccc12 [Sevin, reference compound], which “Percent Mortality (24 hours)” value [8] is on record?
The value was 100%.

Which mortality ([9]; at 24 hours) does the source give for CCCCC(C=O)=Cc1ccccc1 [α-butyl cinnamic aldehyde] here?
The mortality was 98.6%.

And the knockdown ([9]; at the 1 hour time point)?
The knockdown was 100%.

From patent US6750256B1, “Use of aromatic aldehydes as insecticides” (Proguard, Inc., priority 1994, dated 2004)
